# Measurements as given in US20150080579A1, “Salts and Polymorphs of Dexrabeprazole” (Cipla Limited, priority 2010, published 2015).
# How the values were obtained:
# [1] = Storage stability: impurity profile
# [2] = Storage stability: water content by KF Autotitrator; type: physicochemical
# Procedure: Water content was measured using about 0.2 g sample in methanol by KF Autotitrator.
# [3] = At 6 months, storage at 2° C. to 8° C.
# [4] = Initial, stability study at 2° C. to 8° C.
Compound,"Impurity A [1, 3] [%]","Impurity B [1, 3] [%]","Impurity C [1, 3] [%]","Impurity A [1, 4] [%]","Impurity B [1, 4] [%]","Impurity C [1, 4] [%]",Stability on storage (in words) ([1]; on storage),Water absorption on storage (in words) ([2]; 2° C. to 8° C. for 6 months),"Water content [2, 3] [% w/w]","Water content [2, 4] [% w/w]",Rise in impurities on storage (in words) ([1]; 2° C. to 8° C. for 6 months)
COCCCOc1ccnc(C[S@@+]([O-])c2nc3ccccc3[nH]2)c1C [dexrabeprazole sodium],0.06,1.25,0.33,0.02,0.87,0.22,not stable on storage,absorbed more water than dexrabeprazole magnesium,13.58,6.84,
dexrabeprazole magnesium hydrate,0.02,0.07,0.09,0.02,0.07,0.09,,,10.46,10.27,does not show significant rise in impurities
